Source: patent publication US9260395B2, “Inhibitors of viral replication, their process of preparation and their therapeutical uses” (priority 2012, dated 2016)
pEC50: −log10 of the molar value.

Test system: NL4-3 strain of HIV-1
Test: Cyto-protection (CellTiter-Glo viability) assay of MT4 cells infected with NL4-3 virus; inhibition of HIV replication
Format: cell-based
Details: Human immunodeficiency virus 1, NL43, 120 h; concentration leading to 50% of cyto-protection; MT4 cells infected with NL4-3 virus; 5 days incubation; CellTiter-Glo; read-out: EC50
Description: Preparation of Virus stock of the NL4-3 strain of HIV-1 (Adachi et al, J Virol, 1986, 59(2):284-91).
The virus was prepared as described in Lopez et al (Lopez et al, Proc Natl Acad Sci USA., 2006, 103(40):14947-52, by transfecting 2×10^6 293 T cells (CRL-1573, ATCC) with following modifications: 6 μg of NL4-3 proviral DNA molecular clone were mixed with Fugene 6 transfection reagent from Roche, and used according to manufacturer's instructions. Forty eight hours later, transfected cell supernatants were harvested, filtered through 0.45-μm-pore-size filters, quantified for HIV-1 p24 antigen by using a Innotest HIV antigen mAb assay (Ingen) according to manufacturer's instructions, and used in infection experiments.
Serial dilutions of compounds to be tested were prepared in complete RPMI medium from 10 mM DMSO stock solutions, and I in 96 well Falcon 353072 Microtest[…]distributed in a volume of 20™ tissue culture plate, in order to get 0.5% DMSO final concentration in each well, after the addition of infected cells. Control wells contained also 0.5% DMSO final concentration but no compound.
MT4 cells (from the NIH AIDS Research and Reference Reagent Program) in RPMI complete medium were counted (10×10^6 cells per well in Falcon 353047 Multiwell™ 24 well) and infected for 2 hours at 37°, at a multiplicity of infection (moi) of 0.0001-0.00001. Cells were then centrifuged 3 min at 3000 rpm, and washed two times in 1 ml PBS to remove viruses that have not entered in cells. Infected cells were resuspended in complete RPMI at 1.25×10^6 cells/ml and 80 μl of infected cells were distributed in each well containing compound to be tested or control wells. The plates were then incubated at 37° for 5 days.
Assay used to measure the inhibition of HIV replication by the compounds (according to Gregg S. Jones et al., Antimicrobial Agents and Chemotherapy, 2009, 53 (3): 1194-1203).
After 5 days of incubation, microplates were equilibrated to room temperature for 30 mn and then 50 μl of CellTiter-Glo reagent (Promega Biosciences, Inc., Madison Wis., USA) were added to each well. Cell lysis was carried out at room temperature during 10 min, 150μl of lysates were transferred in Packard Optiplate 96 well, and luminescence was read on a Fluoroskan (Thermo Scientific).
The EC50, or effective concentration 50, is the concentration of compound leading to 50% of cyto-protection in a Cell-Titer-Glo® viability assay based on MT4 cells infected with NL4-3 virus (table 1).

| Structure (SMILES) | pEC50 |
| --- | --- |
| Cn1nc(CC2CCCC2)c(-c2ccc3c(c2)CCCO3)c1C(OC(C)(C)C)C(=O)O (centres unmarked) [Example 21, 2-(tert-butoxy)-2-[3-(cyclopentylmethyl)-4-(3,4-dihydro-2H-1-benzopyran-6-yl)-1-methyl-1H-pyrazol-5-yl]acetic acid] | 5.03 |
| Cn1nc(C2=CCCC2(C)C)c(-c2ccc3c(c2)CCCO3)c1C(OC(C)(C)C)C(=O)O (centres unmarked) [Example 32, 2-(tert-butoxy)-2-[4-(3,4-dihydro-2H-1-benzopyran-6-yl)-3-(5,5-dimethylcyclopent-1-en-1-yl)-1-methyl-1H-pyrazol-5-yl]acetic acid] | 5.49 |
| Cn1nc(C2=CCC(C)(C)CC2)c(-c2ccc3c(c2)CCCO3)c1C(OC(C)(C)C)C(=O)O (centres unmarked) [Example 14, 2-(tert-butoxy)-2-[4-(3,4-dihydro-2H-1-benzopyran-6-yl)-3-(4,4-dimethylcyclohex-1-en-1-yl)-1-methyl-1H-pyrazol-5-yl]acetic acid] | 5.77 |
| Cn1nc(-c2ccncc2)c(-c2ccc3c(c2)CCCO3)c1C(OC(C)(C)C)C(=O)O (centres unmarked) [Example 40, 2-(tert-butoxy)-2-[4-(3,4-dihydro-2H-1-benzopyran-6-yl)-1-methyl-3-(pyridin-4-yl)-1H-pyrazol-5-yl]acetic acid] | 5.22 |
| Cn1nc(C2=CCCCC2)c(-c2ccc3c(c2)CCCO3)c1C(OC(C)(C)C)C(=O)O (centres unmarked) [Example 13, 2-(tert-butoxy)-2-[3-(cyclohex-1-en-1-yl)-4-(3,4-dihydro-2H-1-benzopyran-6-yl)-1-methyl-1H-pyrazol-5-yl]acetic acid] | 6.77 |
| CC1CC=C(c2nn(C)c(C(OC(C)(C)C)C(=O)O)c2-c2ccc3c(c2)CCCO3)CC1 (centres unmarked) [Example 31, 2-(tert-butoxy)-2-[4-(3,4-dihydro-2H-1-benzopyran-6-yl)-1-methyl-3-(4-methylcyclohex-1-en-1-yl)-1H-pyrazol-5-yl]acetic acid] | 5.42 |
| Cn1nc(-c2nccs2)c(-c2ccc3c(c2)CCCO3)c1C(OC(C)(C)C)C(=O)O (centres unmarked) [Example 8, 2-(tert-butoxy)-2-[4-(3,4-dihydro-2H-1-benzopyran-6-yl)-1-methyl-3-(1,3-thiazol-2-yl)-1H-pyrazol-5-yl]acetic acid] | 5.43 |
| C=C(C)c1nn(C)c(C(OC(C)(C)C)C(=O)O)c1-c1ccc2c(c1)CCCO2 (centres unmarked) [Example 22, 2-(tert-butoxy)-2-[4-(3,4-dihydro-2H-1-benzopyran-6-yl)-1-methyl-3-(prop-1-en-2-yl)-1H-pyrazol-5-yl]acetic acid] | 5.10 |
| Cn1nc(-c2cc3c(s2)CCC3)c(-c2ccc3c(c2)CCCO3)c1C(OC(C)(C)C)C(=O)O (centres unmarked) [Example 37, 2-(tert-butoxy)-2-(3-{4H,5H,6H-cyclopenta[b]thiophen-2-yl}-4-(3,4-dihydro-2H-1-benzopyran-6-yl)-1-methyl-1H-pyrazol-5-yl)acetic acid] | 5.48 |
| Cn1nc(C2=CCCCCC2)c(-c2ccc3c(c2)CCCO3)c1C(OC(C)(C)C)C(=O)O (centres unmarked) [Example 16, 2-(tert-butoxy)-2-[3-(cyclohept-1-en-1-yl)-4-(3,4-dihydro-2H-1-benzopyran-6-yl)-1-methyl-1H-pyrazol-5-yl]acetic acid] | 6.06 |
| Cn1nc(C2=CC(O)CCC2)c(-c2ccc3c(c2)CCCO3)c1C(OC(C)(C)C)C(=O)O (centres unmarked) [Example 43, 2-(tert-butoxy)-2-[4-(3,4-dihydro-2H-1-benzopyran-6-yl)-3-(3-hydroxycyclohex-1-en-1-yl)-1-methyl-1H-pyrazol-5-yl]acetic acid] | 5.04 |
